Tests used:
[1] = test system: MIA PaCa-2 pancreatic tumor xenograft; parameters: method as in PMID 26077929; settings: cited from earlier work
[2] = test system: fetal lung fibroblast-like nononcogenic control cell line (WI-38); assay: 96 h SRB growth inhibition assay, WI-38; type: cell-based, human; settings: Homo sapiens, WI-38; SMILES csv supplement; read-out: WI-30 IC50
Description: (§1) Compounds were screened with a 96 h SRB (sulforhodamine B) assay for their antiproliferative activity in a panel of human cancer cell lines comprising lung adenocarcinoma (A549), breast adenocarcinoma (MCF7), and PDAC (MIA PaCa-2 and PANC-1) cell lines, as well as a fetal lung fibroblast-like nononcogenic control cell line (WI-38) (Figure 1f). […] Gemcitabine is also active in these lines at low nanomolar levels, although less so in MIA PaCa-2 (IC50 19 ± 5 nM) and more so in BX-PC3 cells (6 ± 2 nM).
(§2) All cell lines were purchased from ATCC and maintained in appropriate medium supplemented with 10% fetal bovine serum (Invitrogen, UK), 2 mM L-glutamine (Invitrogen, Netherlands), and other components as specified by the suppliers. Cell lines were maintained at 37 °C, 5% CO2, and routinely passaged. Drugs were dissolved in H2O and filtered through 0.22 μm pore-size filter units (stock 10 mM) before addition to appropriate cell line media. Cellular growth inhibition was measured using the sulforhodamine B (SRB) assay in 96-well plates as described previously.[78] The 50% inhibitory concentrations (IC50) were determined by taking the mean absorbance at 540 nm for each drug concentration expressed as a percentage of the absorbance of untreated control wells.

PDAC PANC-1 cells = assay: 96 h SRB growth inhibition assay, PANC-1; type: cell-based; settings: Homo sapiens
Description: as §1, §2

[3] = test system: MIA PaCa-2 pancreatic tumor xenograft; assay: Subcutaneous MIA PaCa-2 pancreatic tumor xenograft therapy study; type: in vivo; settings: 15 mg/kg IV twice weekly for 28 days
Description: To determine if the in vitro activity of CM03 was paralleled in vivo, we explored the activity of CM03 in a mouse xenograft model of PDAC. We have previously reported that the maximum tolerated dosage (MTD) for intravenous (IV) administration of MM41 is 25 mg/kg.[33] CM03 was well tolerated, up to a dosage of 45–50 mg/kg, as judged by a dose-escalation MTD study. A therapeutic schedule of two CM03 intravenous (IV) doses was explored using a subcutaneous MIA PaCa-2 pancreatic tumor xenograft model derived from the human cell line used in the cell growth inhibition studies. A group size of eight CD-1 nude mice was used, and dosing was conducted at 10 and 15 mg/kg, each twice weekly, over a period of 4 weeks (28 days: 8 doses). Two further groups were given either MM41 or gemcitabine at 15 mg/kg and received the same dose regimen. […] IVIS imaging of treated mice was performed by taking account of the intrinsic fluorescence of CM03. […] Thus, in contrast to MM41 and gemcitabine, the higher-dose CM03 treatment results in a statistically significant (p < 0.001) antitumor effect, which persisted long after dosing had ceased, up to the termination of the xenograft experiment (62 days).
For therapy studies, female CD-1 nude mice (2–3 months old, weighing 20–25 g) were injected subcutaneously with 5 × 10^6 MIA PaCa-2 cells in the right flank (unsupplemented RPMI + Matrigel). When the tumors were established (approximately 13 days, mean size 0.05 cm^3), the mice were divided into five treatment groups with eight mice/group. The MM41 and CM03 samples were dissolved directly in saline to the required concentrations and administered IV. Tumor size was measured weekly by calliper using the π-based ellipsoid volume formula (length × width × height × π/6) every 3–4 days, and the mice were also weighed and examined at the same time to determine any signs of toxicity from the drug.
• Group 1:15 mg/kg of gemcitabine (Sigma), twice weekly dose. • Group 2:15 mg/kg of MM41, twice weekly dose. • Group 3:10 mg/kg of CM03, twice weekly dose. • Group 4:15 mg/kg of CM03, twice weekly dose. • Group 5: saline only, twice weekly dose.
The xenograft data was analyzed using Student’s t test (GraphPad Inc.). Responses were considered to be significant for those with probabilities (p) less than 5% (p < 0.05). Mice were culled if there was any sign of tumor ulceration, if tumor volume exceeded 1.5 cm^3, or if a weight loss over 20% of initial body weight was observed. Samples of liver, kidney, and spleen from each animal in the CM03 (15 mg/kg) and untreated control groups were excised at the end of the therapy experiment, then fixed in 10% neutral buffered formalin for at least 48 h prior to processing and paraffin embedding. Tissue slices were stained with hematoxylin and eosin and assessed visually for any obvious differences compared with controls, indicative of toxicity and tissue damage. For the imaging study mice were anesthetized using isoflurane and imaged using the IVIS preclinical imaging system from PerkinElmer. Images were captured after 4 h following intravenous administration of CM03 using Cy5.5 excitation for 5 s.

[4] = test system: breast adenocarcinoma (MCF7); assay: 96 h SRB growth inhibition assay, MCF7; type: cell-based; settings: Homo sapiens
Description: as §1, §2

hERG = hERG (Homo sapiens, UniProt Q12809); assay: hERG liability (unpublished data)
hERG, sequence (Q12809 whole entry): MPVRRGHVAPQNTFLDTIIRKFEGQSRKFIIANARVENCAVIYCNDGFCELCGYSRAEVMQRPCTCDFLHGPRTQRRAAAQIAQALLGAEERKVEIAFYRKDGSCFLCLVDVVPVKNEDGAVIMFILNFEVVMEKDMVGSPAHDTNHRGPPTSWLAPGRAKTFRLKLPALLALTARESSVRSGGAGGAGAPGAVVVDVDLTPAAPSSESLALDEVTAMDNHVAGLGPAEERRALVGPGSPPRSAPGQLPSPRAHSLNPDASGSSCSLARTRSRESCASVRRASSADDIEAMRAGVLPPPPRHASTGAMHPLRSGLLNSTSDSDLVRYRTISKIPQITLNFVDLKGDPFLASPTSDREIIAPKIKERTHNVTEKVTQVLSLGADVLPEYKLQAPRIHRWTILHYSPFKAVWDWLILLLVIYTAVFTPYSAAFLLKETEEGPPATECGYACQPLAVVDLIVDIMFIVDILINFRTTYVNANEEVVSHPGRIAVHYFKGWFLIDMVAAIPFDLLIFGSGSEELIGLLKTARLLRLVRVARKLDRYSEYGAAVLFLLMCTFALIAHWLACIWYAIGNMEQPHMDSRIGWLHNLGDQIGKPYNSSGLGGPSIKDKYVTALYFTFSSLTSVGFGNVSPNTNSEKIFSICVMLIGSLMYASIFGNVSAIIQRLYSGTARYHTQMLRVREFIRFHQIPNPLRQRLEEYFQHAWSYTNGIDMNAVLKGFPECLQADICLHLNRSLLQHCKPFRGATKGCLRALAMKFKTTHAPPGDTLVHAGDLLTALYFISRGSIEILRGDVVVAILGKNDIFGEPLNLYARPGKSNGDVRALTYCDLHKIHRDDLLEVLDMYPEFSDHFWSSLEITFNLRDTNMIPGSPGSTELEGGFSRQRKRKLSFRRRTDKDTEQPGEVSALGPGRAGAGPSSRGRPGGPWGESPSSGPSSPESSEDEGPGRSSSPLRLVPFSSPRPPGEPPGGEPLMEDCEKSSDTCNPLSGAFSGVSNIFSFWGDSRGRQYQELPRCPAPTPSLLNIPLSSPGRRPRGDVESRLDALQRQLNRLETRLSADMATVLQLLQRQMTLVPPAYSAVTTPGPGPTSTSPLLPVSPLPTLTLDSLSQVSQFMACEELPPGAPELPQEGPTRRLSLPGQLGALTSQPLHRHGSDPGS

[5] = Aqueous solubility and pH of the salt; type: physicochemical; settings: formate salt
Excerpt: The synthetic approach to the trisubstituted series adapts previously published procedures to simplify purification and increase yields of both intermediates and final compounds (Scheme 1). 5,5-Dimethyl-1,3-dibromohydantoin was used for the regioselective bromination of the starting material, enabling more efficient and convenient purification. The separation of final products was achieved using column chromatography, giving a 26% overall yield for CM03.
CM03 was then converted to a mixed hydrochloride/formate salt in order to enhance its aqueous solubility. At a concentration of 5 mg/mL, the pH of the CM03 salt solution was 6.95.

In the case of `CN1CCN(CCCNc2cc3c4c(c(NCCCN5CCN(C)CC5)cc5c4c2C(=O)N(CCCN2CCOCC2)C5=O)C(=O)N(CCCN2CCOCC2)C3=O)CC1` [MM41, 4,9-bis((3-(4-methylpiperazin-1-yl)propyl)amino)-2,7-bis(3-morpholinopropyl)benzo[lmn][3,8]phenanthroline-1,3,6,8(2H,7H)-tetraone, reference compound], the “reduction of tumor volume in a PDAC xenograft model” value [1] is listed as about 80%, the IC50 [2] is listed as 230 ± 50 nM and the IC50 (PDAC PANC-1 cells) is listed as 3 ± 1 nM. The “MTV ± SEM (Day 29)” value [3] was 0.05 ± 0.02 cm^3, the “MTV ± SEM (Day 62)” value [3] was 0.26 ± 0.14 cm^3 and the IC50 [4] was 70 ± 10 nM. For the same compound, the hERG liabilities (hERG) was “neither MM41 nor CM03 show significant hERG liabilities” and the water solubility [5] was “freely water-soluble”.

From article PMC5867665, “Targeting Multiple Effector Pathways in Pancreatic Ductal Adenocarcinoma with a G-Quadruplex-Binding Small Molecule” (Journal of Medicinal Chemistry, 2018)
